Measurements published in PubChem BioAssay (NCI).
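96-well plates; 48 h exposure; 5 concentrations. Endpoints by linear interpolation between flanking doses. Not reached: highest tested concentration assigned. GI50 is the concentration that inhibits growth by half. TGI is the concentration that stops growth completely.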

How the values were obtained:
Experiment in all cases: NCI anticancer screen, dose series, 48 h
MDA-MB-435 = test system: MDA-MB-435
SK-MEL-5 melanoma = test system: SK-MEL-5 melanoma
786-0 renal = test system: 786-0 renal
IGROV1 ovarian = test system: IGROV1 ovarian
HCC-2998 colon = test system: HCC-2998 colon
SF-295 CNS = test system: SF-295 CNS
SF-268 CNS = test system: SF-268 CNS
SNB-19 CNS = test system: SNB-19 CNS
SN12C renal = test system: SN12C renal
M14 melanoma = test system: M14 melanoma
SK-OV-3 ovarian = test system: SK-OV-3 ovarian

| Compound | TGI (MDA-MB-435) | TGI (SK-MEL-5 melanoma) | TGI (786-0 renal) | TGI (IGROV1 ovarian) | TGI (HCC-2998 colon) | TGI (SF-295 CNS) | TGI (SF-268 CNS) | TGI (SNB-19 CNS) | TGI (SN12C renal) | TGI (M14 melanoma) | TGI (SK-OV-3 ovarian) | GI50 (MDA-MB-435) | GI50 (SK-MEL-5 melanoma) | GI50 (IGROV1 ovarian) | GI50 (HCC-2998 colon) | GI50 (SF-295 CNS) | GI50 (SF-268 CNS) | GI50 (SNB-19 CNS) | GI50 (SK-OV-3 ovarian) | GI50 (SN12C renal) |
| --- | --- | --- | --- | --- | --- | --- | --- | --- | --- | --- | --- | --- | --- | --- | --- | --- | --- | --- | --- | --- |
| O=C(NC1=C(Cl)C(=O)c2ccccc2C1=O)c1ccccc1 | 47.6 µM | 78.9 µM | > 100 µM | > 100 µM | > 100 µM | > 100 µM | > 100 µM | > 100 µM | > 100 µM | > 100 µM | – | – | – | – | – | – | – | – | – | – |
| N#C[S-].[La+3].c1cnc2c(c1)ccc1cccnc12.c1cnc2c(c1)ccc1cccnc12.c1cnc2c(c1)ccc1cccnc12 | – | 12.7 µM | 11.7 µM | 19.2 µM | 18.8 µM | 7.94 µM | 18.9 µM | 20.9 µM | 16 µM | 3.57 µM | 14.1 µM | – | – | – | – | – | – | – | – | – |
| CNc1ncccc1Nc1cc(=O)n2c3cccnc3n(C)c2c1 | > 100 µM | > 100 µM | > 100 µM | > 100 µM | > 100 µM | > 100 µM | > 100 µM | > 100 µM | – | > 100 µM | > 100 µM | – | – | – | – | – | – | – | – | – |
| COc1cc2c(cc1O)c(O)cc1c3cc(OC)c(OC)cc3c[n+](C)c21 | 30.9 µM | 40.2 µM | > 100 µM | – | > 100 µM | > 100 µM | > 100 µM | > 100 µM | – | > 100 µM | > 100 µM | – | – | – | – | – | – | – | – | – |
| O=C(CSc1nnc(-c2ccccn2)s1)N/N=C/c1ccccc1 | > 100 µM | > 100 µM | > 100 µM | > 100 µM | – | > 100 µM | > 100 µM | > 100 µM | > 100 µM | > 100 µM | > 100 µM | – | – | – | – | – | – | – | – | – |
| Clc1ccc(CCN(CCc2ccc(Cl)c(Cl)c2)CCN2CCCC2)cc1Cl | 2.75 µM | 3.2 µM | 3.14 µM | 2.93 µM | 3.19 µM | 3.3 µM | 3.73 µM | – | – | 3.1 µM | 3.49 µM | – | – | – | – | – | – | – | – | – |
| COc1ccc(/C=C2\N=C(N3CCCCC3)NC2=O)cc1 | > 100 µM | – | > 100 µM | > 100 µM | > 100 µM | > 100 µM | > 100 µM | > 100 µM | > 100 µM | > 100 µM | > 100 µM | – | – | – | – | – | – | – | – | – |
| Cc1ccc(C(=O)O)c(/C=C2\Cc3ccc(C)cc3C2=O)c1 | > 100 µM | > 100 µM | > 100 µM | > 100 µM | > 100 µM | > 100 µM | > 100 µM | > 100 µM | > 100 µM | > 100 µM | – | – | – | – | – | – | – | – | – | – |
| CCCC(C)c1ccc(OCCCCCCN2CCNCC2)cc1 (stereo unspecified) | 3.22 µM | 3.1 µM | – | 3.78 µM | 3.28 µM | 3.44 µM | 9.89 µM | 13.6 µM | 9.66 µM | – | 7.12 µM | 1.7 µM | 1.67 µM | 1.92 µM | 1.84 µM | 1.82 µM | 2.97 µM | 3.2 µM | 2.57 µM | 2.84 µM |
| CC(=O)SCCC(NC(=S)Nc1ccccc1)P(=O)(Oc1ccccc1)Oc1ccccc1 (stereo unspecified) | > 100 µM | – | > 100 µM | > 100 µM | > 100 µM | > 100 µM | > 100 µM | > 100 µM | > 100 µM | > 100 µM | > 100 µM | – | – | – | – | – | – | – | – | – |
